Key:
[1] = Solubility of mefenamic acid in water and various aqueous solutions; assay type: physicochemical; details: for solubility: aqueous solution containing polyvinylpyrrolidone and basic substance
[2] = in words, background statement; cited from earlier work

SMILES: Cc1cccc(Nc2ccccc2C(=O)O)c1C [メフェナム酸, N−2,3−キシリルアントラニル酸]
- solubility [1]: 高い溶解性を示し
- solubility ([1]; with nonionic surfactant of HLB 14-15 added): 溶解性が飛躍的に向上する
- solubility and stability ([1]; aqueous solution of polyvinylpyrrolidone and surfactant mixture, approximately pH 7.0-8.0): 良好な溶解性と安定性を示す
- solubility in water [2]: 水に極めて溶けにくく

From patent JPH1029937A, “メフェナム酸水溶液製剤” (KOBAYASHI SEIYAKU KOGYO KK, priority 1996, dated 1997)
